Results on 14 compounds are retold here after ChEMBL document CHEMBL1156206, “Pyrazolone-fused combretastatins and their precursors: synthesis, cytotoxicity, antitubulin activity and molecular modeling studies” (Bioorg Med Chem, 2010).

pIC50: −log10 of the molar value.

System in one experiment: not listed separately
The experiment in a line: Inhibition of tubulin polymerization at 20 uM relative to control.
Settings: not given; call rule not given here
As for `COC(=O)n1[nH]c(=O)c(-c2cc(OC)c(OC)c(OC)c2)c1-c1ccc(OC)c(F)c1`, the inhibition (as a rule, how much of the control response was suppressed) came to 9%.
Still for that read-out and setting: as for `COC(=O)n1[nH]c(=O)c(-c2cc(OC)c(OC)c(OC)c2)c1-c1ccc(OC)c(OC(C)=O)c1`, the figure is 0%; as for `COC(=O)n1[nH]c(=O)c(-c2ccc(OC)c(OC)c2)c1-c1cc(OC)c(OC)c(OC)c1`, 0%; as for `COC(=O)NNC(=O)/C(=C/c1cc(OC)c(OC)c(OC)c1)c1ccc(OC)c(OC)c1`, 0%.
Regarding `COC(=O)n1[nH]c(=O)c(-c2cc(OC)c(OC)c(OC)c2)c1-c1ccc(OC)c(OC)c1`, the inhibition was determined as 3%.
Still for that read-out and setting: as for `COC(=O)n1[nH]c(=O)c(-c2ccc(OC)c(OC)c2)c1-c1cc(OC)c(OC)cc1OC`, the figure is 2%.
Same read-out and setting: as for `COC(=O)n1[nH]c(=O)c(-c2cc(OC)c(OC)c(OC)c2)c1-c1cccc2ccccc12`, the figure is 7%; as for `COc1ccc(-c2c(-c3cc(OC)c(OC)cc3OC)[nH][nH]c2=O)cc1OC`, 0%; as for `COc1ccc(-c2[nH][nH]c(=O)c2-c2cc(OC)c(OC)c(OC)c2)cc1OC`, 31%.
The same measure, in the same setting: as for `COC(=O)NNC(=O)/C(=C/c1cc(OC)c(OC)cc1OC)c1ccc(OC)c(OC)c1`, the figure is 0%.
`COC(=O)n1[nH]c(=O)c(-c2cc(OC)c(OC)c(OC)c2)c1-c1ccc2ccccc2c1` displayed an inhibition of 3%.
Take `COC(=O)n1[nH]c(=O)c(-c2cc(OC)c(OC)c(OC)c2)c1-c1ccc(OC)cc1`: the inhibition stood at 0%.
On the same count and under the same terms, as for `COC(=O)NNC(=O)/C(=C/c1ccc(OC)c(OC)c1)c1cc(OC)c(OC)c(OC)c1`, the figure is 0%; as for `COC(=O)NNC(=O)/C(=C/c1ccc(OC)c(OC(C)=O)c1)c1cc(OC)c(OC)c(OC)c1`, 25%.

For a further experiment, the system named is HeLa. The experiment in a line: Cytotoxicity against human HeLa cells after 72 hrs by MTT assay. It is filed as functional, cell-based. Conditions: Homo sapiens, HeLa, 72 h; read-out: IC50. In general terms: Tetrazolium dyes change colour on reduction, which living cells bring about.
Turning to `COC(=O)n1[nH]c(=O)c(-c2cc(OC)c(OC)c(OC)c2)c1-c1ccc(OC)c(F)c1`, the pIC50 (commonly −log10 of the IC50, conventionally taken in molar units) was 5.76.
Same read-out and setting: as for `COC(=O)n1[nH]c(=O)c(-c2cc(OC)c(OC)c(OC)c2)c1-c1ccc(OC)c(OC(C)=O)c1`, the figure is 6.47; as for `COC(=O)NNC(=O)/C(=C/c1cc(OC)c(OC)c(OC)c1)c1ccc(OC)c(OC)c1`, less than 4.30.
Take `COC(=O)n1[nH]c(=O)c(-c2cc(OC)c(OC)c(OC)c2)c1-c1ccc(OC)c(OC)c1`: the negative logarithm of the IC50 (pIC50) was 4.44.
The same measure, in the same setting: as for `COC(=O)n1[nH]c(=O)c(-c2cc(OC)c(OC)c(OC)c2)c1-c1cccc2ccccc12`, the figure is less than 4.30; as for `COc1ccc(-c2c(-c3cc(OC)c(OC)cc3OC)[nH][nH]c2=O)cc1OC`, less than 4.30.
In the case of `COc1ccc(-c2[nH][nH]c(=O)c2-c2cc(OC)c(OC)c(OC)c2)cc1OC`, the pIC50 is 5.28.
Same read-out and setting: as for `COC(=O)n1[nH]c(=O)c(-c2cc(OC)c(OC)c(OC)c2)c1-c1ccc2ccccc2c1`, the figure is 6.28.
On the same count and under the same terms, as for `COC(=O)n1[nH]c(=O)c(-c2cc(OC)c(OC)c(OC)c2)c1-c1ccc(OC)cc1`, the figure is 6.02; as for `COC(=O)NNC(=O)/C(=C/c1ccc(OC)c(OC)c1)c1cc(OC)c(OC)c(OC)c1`, less than 4.30; as for `COC(=O)NNC(=O)/C(=C/c1ccc(OC)c(OC(C)=O)c1)c1cc(OC)c(OC)c(OC)c1`, 6.30.

Still in this experiment, the particulars now being: hela.
Take `COC(=O)n1[nH]c(=O)c(-c2ccc(OC)c(OC)c2)c1-c1cc(OC)c(OC)c(OC)c1`: the IC50 result is “Not Active”.
For `COC(=O)n1[nH]c(=O)c(-c2ccc(OC)c(OC)c2)c1-c1cc(OC)c(OC)cc1OC`, the IC50 result is recorded as “Not Active”.
Still for that read-out and setting: as for `COC(=O)NNC(=O)/C(=C/c1cc(OC)c(OC)cc1OC)c1ccc(OC)c(OC)c1`, the entry is “Not Active”.
